# In patent US20220112479A1, “COMPOUNDS STABILIZING AMYLASES IN LIQUIDS” (BASF SE, priority 2018, published 2022):
# Experiments:
# Assay type in all cases: biochemical
# Amy1=Stainzyme = experiment: amylase storage stability in liquid formulation (pNP release from Ethyliden-blocked-pNPG7); set-up: key: % of activity in reference formulation at time 0; conditions: storage at 37° C.
# Description: (§1) The storage stability of amylase was assessed at 37° C. Base test formulations were manufactured by making base formulations I to V by mixing the components according to Table 1. Amylases used: Amy1=Stainzyme, Amy2=Amplify, Amy3=Stainzyme Plus L (12L) The respective component (a) or comparative compound was added, if applicable, to the respective base formulation in amounts as indicated in Table 1. The amount of amylase as provided in Table 1 refers to active protein. Water was added to accomplish the balance to 100. […] Amylase activity at certain points in time as indicated in Table 2 was measured quantitatively by the release of the chromophore para-nitrophenol (pNP) from the substrate ([…]-blocked-pNPG7, Roche Applied Science 10880078103). The alpha-amylase degrades the substrate into smaller molecules and α-glucosidase (Roche Applied Science 11626329103), which is present in excess compared to the amylase, process these smaller products until pNP is released; the release of pNP, measured via an increase of absorption at 405 nm, is directly proportional to the amylase activity of the sample. Amylase standard: […] 120 L (Sigma 3403). […] The amylolytic activity values provided were calculated referring to the value determined in the reference formulation at the time 0. The nomenclature of formulations is as follows: the Roman number before the full stop characterizes the base formulation, the Arabian number the type of compound (A.# compound according to invention (component (a)); B.# comparative compound).
# Savinase Ultra 16.0L = molecular target: T1, Savinase Ultra 16.0L (Lederbergia lenta, UniProt P29600); experiment: protease storage stability in liquid formulation (Suc-AAPF-pNA substrate); conditions: storage at 37° C.
# T1 construct: purchased Sigma-Aldrich
# T1 sequence (P29600 1-269): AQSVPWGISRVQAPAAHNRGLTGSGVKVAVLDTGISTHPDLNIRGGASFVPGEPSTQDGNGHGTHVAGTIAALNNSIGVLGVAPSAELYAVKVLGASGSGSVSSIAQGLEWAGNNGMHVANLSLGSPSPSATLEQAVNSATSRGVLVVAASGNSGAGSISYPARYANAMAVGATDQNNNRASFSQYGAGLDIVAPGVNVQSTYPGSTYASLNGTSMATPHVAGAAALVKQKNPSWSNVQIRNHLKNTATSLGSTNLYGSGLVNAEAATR
# Description: Base test formulations were manufactured by making base formulations I to V by mixing the components according to Table 1.
# Protease used: (S) Savinase Ultra 16.0L (CAS-No. 9014-01-1, EC-No. 232-752-2) was purchased from Sigma-Aldrich
# The respective component (a) or comparative compound was added, if applicable, to the respective base formulation in amounts as indicated in Table 1.
# The amount of protease as provided in Table 1 refers to active protein.
# Water was added to accomplish the balance to 100.
# Protease activity at certain points in time as indicated in Table 3 was be determined by employing Succinyl-Ala-Ala-Pro-Phe-p-nitroanilide (Suc-AAPF-pNA, short AAPF) as substrate. pNA is cleaved from the substrate molecule by proteolytic cleavage, resulting in release of yellow color of free pNA which was determined by measuring […]. Measurements were done at 20° C.
# The proteolytic activity values provided in Table 3 were calculated referring to the value determined in the reference formulation at the time 0.
# The nomenclature of formulations is as follows: the Roman number before the full stop characterizes the base formulation, the Arabian number the type of salt (A.#inventive salt (component (a)); B.# comparative compound). Zero (“0”): no salt, but diethylene glycol.
# Amy2=Amplify = experiment: amylase storage stability in liquid formulation (pNP release from Ethyliden-blocked-pNPG7); set-up: key: % of activity in reference formulation at time 0; conditions: base formulation III., 1.5 wt % component (a), storage at 37° C.
# Description: as §1
# [1] = base formulation IV., 2.0 wt % component (a), 3 d
# [2] = base formulation IV., 2.0 wt % component (a), 7 d
# [3] = base formulation IV., 2.0 wt % component (a), 14 d
# [4] = base formulation IV., 2.0 wt % component (a), 21 d
# [5] = base formulation IV., 2.0 wt % component (a), 28 d
# [6] = base formulation IV., 2.0 wt % component (a), 42 d
# [7] = base formulation IV., 2.0 wt % component (a), T0
# [8] = base formulation I., 1.5 wt % component (a), 3 d
# [9] = base formulation I., 1.5 wt % component (a), 7 d
# [10] = base formulation I., 1.5 wt % component (a), 14 d
# [11] = base formulation I., 1.5 wt % component (a), 21 d
# [12] = base formulation I., 1.5 wt % component (a), 28 d
# [13] = base formulation I., 1.5 wt % component (a), 42 d
# [14] = base formulation I., 1.5 wt % component (a), T0
# [15] = base formulation III., 1.5 wt % component (a), 3 d
# [16] = base formulation III., 1.5 wt % component (a), 7 d
# [17] = base formulation III., 1.5 wt % component (a), 14 d
# [18] = base formulation III., 1.5 wt % component (a), 21 d
# [19] = base formulation III., 1.5 wt % component (a), 28 d
# [20] = base formulation III., 1.5 wt % component (a), 42 d
# [21] = base formulation III., 1.5 wt % component (a), T0
compound,measurement,setting,value
"CCCCOC(=O)CC(O)(CC(=O)OCCCC)C(=O)OCCCC [A.3, Tributylcitrate]","amylase activity, referring to reference formulation at time 0",Amy1=Stainzyme; [1],95
same,"amylase activity, referring to reference formulation at time 0",Amy1=Stainzyme; [2],90
same,"amylase activity, referring to reference formulation at time 0",Amy1=Stainzyme; [3],84
same,"amylase activity, referring to reference formulation at time 0",Amy1=Stainzyme; [4],77
same,"amylase activity, referring to reference formulation at time 0",Amy1=Stainzyme; [5],68
same,"amylase activity, referring to reference formulation at time 0",Amy1=Stainzyme; [6],57
same,"amylase activity, referring to reference formulation at time 0",Amy1=Stainzyme; [7],98
same,"protease activity, referring to reference formulation at time 0",Savinase Ultra 16.0L; [1],98
same,"protease activity, referring to reference formulation at time 0",Savinase Ultra 16.0L; [2],90
same,"protease activity, referring to reference formulation at time 0",Savinase Ultra 16.0L; [3],85
same,"protease activity, referring to reference formulation at time 0",Savinase Ultra 16.0L; [4],78
same,"protease activity, referring to reference formulation at time 0",Savinase Ultra 16.0L; [5],70
same,"protease activity, referring to reference formulation at time 0",Savinase Ultra 16.0L; [6],67
same,"protease activity, referring to reference formulation at time 0",Savinase Ultra 16.0L; [7],99
"CCCCOC(=O)CC(CC(=O)OCCCC)(OC(C)=O)C(=O)OCCCC [A.4, Acetyltributylcitrate]","protease activity, referring to reference formulation at time 0",Savinase Ultra 16.0L; [8],100
same,"protease activity, referring to reference formulation at time 0",Savinase Ultra 16.0L; [9],94
same,"protease activity, referring to reference formulation at time 0",Savinase Ultra 16.0L; [10],90
same,"protease activity, referring to reference formulation at time 0",Savinase Ultra 16.0L; [11],84
same,"protease activity, referring to reference formulation at time 0",Savinase Ultra 16.0L; [12],82
same,"protease activity, referring to reference formulation at time 0",Savinase Ultra 16.0L; [13],70
same,"protease activity, referring to reference formulation at time 0",Savinase Ultra 16.0L; [14],102
same,"protease activity, referring to reference formulation at time 0","Savinase Ultra 16.0L; base formulation II., 1.5 wt % component (a), 3 d",100
same,"protease activity, referring to reference formulation at time 0","Savinase Ultra 16.0L; base formulation II., 1.5 wt % component (a), 7 d",95
same,"protease activity, referring to reference formulation at time 0","Savinase Ultra 16.0L; base formulation II., 1.5 wt % component (a), 14 d",90
same,"protease activity, referring to reference formulation at time 0","Savinase Ultra 16.0L; base formulation II., 1.5 wt % component (a), 21 d",85
same,"protease activity, referring to reference formulation at time 0","Savinase Ultra 16.0L; base formulation II., 1.5 wt % component (a), 28 d",81
same,"protease activity, referring to reference formulation at time 0","Savinase Ultra 16.0L; base formulation II., 1.5 wt % component (a), 42 d",70
same,"protease activity, referring to reference formulation at time 0","Savinase Ultra 16.0L; base formulation II., 1.5 wt % component (a), T0",102
same,"protease activity, referring to reference formulation at time 0",Savinase Ultra 16.0L; [15],99
same,"protease activity, referring to reference formulation at time 0",Savinase Ultra 16.0L; [16],95
same,"protease activity, referring to reference formulation at time 0",Savinase Ultra 16.0L; [17],91
same,"protease activity, referring to reference formulation at time 0",Savinase Ultra 16.0L; [18],86
same,"protease activity, referring to reference formulation at time 0",Savinase Ultra 16.0L; [19],81
same,"protease activity, referring to reference formulation at time 0",Savinase Ultra 16.0L; [20],70
same,"protease activity, referring to reference formulation at time 0",Savinase Ultra 16.0L; [21],101
same,"protease activity, referring to reference formulation at time 0","Savinase Ultra 16.0L; base formulation V., 2.0 wt % component (a), 3 d",94
same,"protease activity, referring to reference formulation at time 0","Savinase Ultra 16.0L; base formulation V., 2.0 wt % component (a), 7 d",90
same,"protease activity, referring to reference formulation at time 0","Savinase Ultra 16.0L; base formulation V., 2.0 wt % component (a), 14 d",85
same,"protease activity, referring to reference formulation at time 0","Savinase Ultra 16.0L; base formulation V., 2.0 wt % component (a), 21 d",80
same,"protease activity, referring to reference formulation at time 0","Savinase Ultra 16.0L; base formulation V., 2.0 wt % component (a), 28 d",76
same,"protease activity, referring to reference formulation at time 0","Savinase Ultra 16.0L; base formulation V., 2.0 wt % component (a), 42 d",68
same,"protease activity, referring to reference formulation at time 0","Savinase Ultra 16.0L; base formulation V., 2.0 wt % component (a), T0",98
Monoethylcitrate [A.6],"amylase activity, referring to reference formulation at time 0",Amy1=Stainzyme; [8],95
same,"amylase activity, referring to reference formulation at time 0",Amy1=Stainzyme; [9],84
same,"amylase activity, referring to reference formulation at time 0",Amy1=Stainzyme; [10],79
same,"amylase activity, referring to reference formulation at time 0",Amy1=Stainzyme; [11],70
same,"amylase activity, referring to reference formulation at time 0",Amy1=Stainzyme; [12],61
same,"amylase activity, referring to reference formulation at time 0",Amy1=Stainzyme; [13],48
same,"amylase activity, referring to reference formulation at time 0",Amy1=Stainzyme; [14],98
same,"amylase activity, referring to reference formulation at time 0",Amy2=Amplify; 3 d,96
same,"amylase activity, referring to reference formulation at time 0",Amy2=Amplify; 7 d,90
same,"amylase activity, referring to reference formulation at time 0",Amy2=Amplify; 14 d,83
same,"amylase activity, referring to reference formulation at time 0",Amy2=Amplify; 21 d,74
same,"amylase activity, referring to reference formulation at time 0",Amy2=Amplify; 28 d,63
same,"amylase activity, referring to reference formulation at time 0",Amy2=Amplify; 42 d,49
same,"amylase activity, referring to reference formulation at time 0",Amy2=Amplify; T0,97
same,"protease activity, referring to reference formulation at time 0",Savinase Ultra 16.0L; [8],94
same,"protease activity, referring to reference formulation at time 0",Savinase Ultra 16.0L; [9],90
same,"protease activity, referring to reference formulation at time 0",Savinase Ultra 16.0L; [10],81
same,"protease activity, referring to reference formulation at time 0",Savinase Ultra 16.0L; [11],73
same,"protease activity, referring to reference formulation at time 0",Savinase Ultra 16.0L; [12],67
same,"protease activity, referring to reference formulation at time 0",Savinase Ultra 16.0L; [13],56
same,"protease activity, referring to reference formulation at time 0",Savinase Ultra 16.0L; [14],100
same,"protease activity, referring to reference formulation at time 0",Savinase Ultra 16.0L; [15],94
same,"protease activity, referring to reference formulation at time 0",Savinase Ultra 16.0L; [16],90
same,"protease activity, referring to reference formulation at time 0",Savinase Ultra 16.0L; [17],84
same,"protease activity, referring to reference formulation at time 0",Savinase Ultra 16.0L; [18],78
same,"protease activity, referring to reference formulation at time 0",Savinase Ultra 16.0L; [19],70
same,"protease activity, referring to reference formulation at time 0",Savinase Ultra 16.0L; [20],62
same,"protease activity, referring to reference formulation at time 0",Savinase Ultra 16.0L; [21],100
